Experimental data as given in patent publication EP4667500A1, “FRUCTOOLIGOSACCHARIDE DERIVATIVES AND USES THEREOF” (Biopract GmbH, priority 2024, dated 2025).

Test system: pancreatic enzymes
Assay: Stability in simulated small intestine (pancreatic hydrolysis), released substituent acid detected by HPLC
Assay type: in vitro ADME
Conditions: incubation in simulated intestinal environment
Description: The compounds analysed are esters between primary or secondary alcohols and fatty acids. In the stomach, the influence of the pH value and its chemical effect is decisive. The stability of the molecules there depends mainly on the nature of the bond. This is the same for all the molecules analysed. […] In contrast, hydrolysis in the small intestine is enzymatically catalysed and the stability can vary greatly between the molecules studied. The work on stability was therefore focussed on pancreatic hydrolysis.
The synthesised ester compounds consisted of a fructooligosaccharide scaffold of the inulin or levan type, to which substituent molecules were bound via an ester bond. Organic acids, predominantly butyric acid, and also propionic acid, acetic acid, succinic acid and benzoic acid served as substituents. The study consisted of incubating the substances in a simulated intestinal environment, followed by the detection of the substituent acid present and, if applicable, released by means of HPLC. Tributyrin was used as a positive control according to the literature.

- stability under the test conditions of the simulated small intestine: largely hydrolysed
Compound: CCCC(=O)OCC(COC(=O)CCC)OC(=O)CCC [Tributyrin]
